Like-named read-outs stand apart in the source and are kept apart here.
Columns and labels:
T. cruzi Tulahuen C4 = assay: Antitrypanosomal assay T. cruzi (beta-galactosidase reporter strain on rat skeletal myoblasts); assay type: cell-based, Trypanosoma cruzi; settings: intracellular amastigotes, 4 days on rat skeletal myoblasts
Experimental: (§1) Serial dilution assays with 11 dilution steps in 96-well plates were used in order to determine the IC50 values of the generated aurachin D analogs against P. falciparum NF54 (erythrocytic stages), T. brucei rhodesiense STIB 900 (bloodstream forms), T. cruzi Tulahuen C4 (intracellular amastigotes) and L. donovani MHOM-ET-67/L82 (axenic amastigotes). Potential cytotoxic effects were evaluated with L6 myoblast cells (Table 2).
Activity against Trypanosoma cruzi was evaluated according to a procedure described by Buckner and coworkers. The strain Tulahuen C4 of T. cruzi, which had been transfected with the β-galactosidase lacZ gene, was cultivated for 4 days on rat skeletal myoblasts (5% CO2, 37 °C) in the presence of drug. For measurement of the IC50, the substrate chlorophenol red-β-D-galactopyranoside was added. The color reaction that developed during the following 2–4 h was quantified photometrically employing an ELISA reader. Benznidazole was included in each test series as positive control.

[1] = system: T. brucei rhodesiense STIB 900; assay: Antitrypanosomal assay T. brucei rhodesiense (resazurin viability); assay type: cell-based, Trypanosoma brucei rhodesiense; settings: read-out: IC50 T. brucei rhodesiense STIB 900
Experimental: as §1
Activity against Trypanosoma brucei rhodesiense (strain STIB 900) was evaluated according to a previously established protocol. Parasites were grown axenically in culture medium supplemented with horse serum. Following a 3-day exposure to test compounds, the viability of tryptomastigote parasites was quantified using the dye resazurin by monitoring the reductive environment of living cells. Fluorescence development was expressed as percentage of the control, and IC50 values were calculated. Melarsoprol was included as positive control.

P. falciparum NF54 = assay: Antiplasmodial assay (3H-hypoxanthine incorporation); assay type: cell-based, Plasmodium falciparum; settings: erythrocytic stages, 48 h drug exposure + 24 h with 3H-hypoxanthine
Experimental: as §1
Antiplasmodial activity was determined against the NF54 strain of Plasmodium falciparum using a modified ^3H-hypoxanthine incorporation assay. Briefly, infected erythrocytes were exposed to serial drug dilutions in microtiter plates for 48 h at 37 °C in a gas mixture with reduced oxygen and elevated carbon dioxide concentrations. ^3H hypoxanthine was added to each well, and after further incubation for 24 h, the wells were harvested on glass fiber filters and counted in a liquid scintillation counter. From the sigmoidal inhibition curve, the IC50 value was calculated. Chloroquine was used as positive control in each test series.

[2] = system: L. donovani MHOM-ET-67/L82; assay: Antileishmanial assay (axenic amastigotes, resazurin viability); assay type: cell-based, Leishmania donovani; settings: 3-day exposure, pH 5.4
Experimental: Serial dilution assays with 11 dilution steps in 96-well plates were used in order to determine the IC50 values of the generated aurachin D analogs against P. falciparum NF54 (erythrocytic stages), T. brucei rhodesiense STIB 900 (bloodstream forms), T. cruzi Tulahuen C4 (intracellular amastigotes) and L. donovani MHOM-ET-67/L82 (axenic amastigotes). Potential cytotoxic effects were evaluated with L6 myoblast cells (Table 2). Evaluation of antileishmanial activity was carried out with axenically grown amastigotes of Leishmania donovani MHOM-ET-67/L82, as previously described. For this, the amastigotes were cultured at 37 °C and pH 5.4 in SM medium supplemented with 10% heat-inactivated fetal bovine serum under an atmosphere of 5% CO2 in air. Following a 3-day exposure to test compounds, the viability of amastigote parasites was quantified using the dye resazurin by monitoring the reductive environment of living cells. Fluorescence development was expressed as percentage of the control, and IC50 values were calculated. Miltefosine was used as positive control.

Rat Myoblast L6 Cells = assay: Cytotoxicity assay with L6 cells (resazurin viability); assay type: cell-based
Experimental: as §1
Cytotoxicity was tested with L6 cells (ATCC CRL-1458), a […] cell line derived from rat skeletal myoblasts, as previously described. For this, L6 cells were grown in culture medium supplemented with heat-inactivated fetal bovine serum under an atmosphere of 5% CO2 in air. Following a 3-day exposure to test compounds, the viability of L6 cells was quantified using the dye resazurin by monitoring the reductive environment of living cells. Fluorescence development was expressed as percentage of the control, and IC50 values were calculated. Podophyllotoxin was used as reference.

[3] = Trypanosoma cruzi, TULAHUEN, Myoblast, 96 h
[4] = Trypanosoma brucei, 72 h, bloodstream forms, 3-day exposure
[5] = Plasmodium falciparum, NF54, 72 h
[6] = Rattus norvegicus, L6, 72 h, cytotoxicity, 3-day exposure, read-out: IC50 Rat Myoblast L6 Cells
[7] = bloodstream forms, 3-day exposure
[8] = cytotoxicity, 3-day exposure, read-out: IC50 Rat Myoblast L6 Cells

Structure (SMILES) | IC50 [1, 7] [µM] | IC50 (P. falciparum NF54) [µM] | IC50 [2] [µM] | IC50 (Rat Myoblast L6 Cells; [8]) [µM] | IC50 (T. cruzi Tulahuen C4) [µM] | further results
O=C(Cn1ccnc1[N+](=O)[O-])NCc1ccccc1 [Benznidazole, reference compound] | – | – | – | – | – | IC50 (T. cruzi Tulahuen C4; [3]): 2.5 µM
CC(C)=CCC/C(C)=C/CC/C(C)=C/Cc1c(C)[nH]c2ccccc2c1=O [Compound 1, aurachin D] | – | – | – | – | – | IC50 [1, 4]: 4.5 µM; IC50 (P. falciparum NF54; [5]): 0.012 µM; IC50 ([2]; Leishmania donovani, 72 h): 0.044 µM; IC50 (Rat Myoblast L6 Cells; [6]): 131 µM; IC50 (Rat Myoblast L6 Cells; Rattus norvegicus, L6, cytotoxicity, read-out: IC50 rat skeletal myoblasts): 131 µM; IC50 (T. cruzi Tulahuen C4; [3]): 1.3 µM
CC(C)=CCC/C(C)=C/CC/C(C)=C/Cc1c[nH]c2ccccc2c1=O [Compound 2, 2-Desmethyl aurachin D] | 9.5 | 0.006 | 1.5 | 20.4 | 2.4 | –
CC(C)=CCC/C(C)=C/CC/C(C)=C/Cc1c(C)[nH]c2ccc(C)cc2c1=O [Compound 3, 6-Methyl aurachin D] | 43.2 | 0.514 | 4.3 | 18.6 | 7.6 | –
CC(C)=CCC/C(C)=C/CC/C(C)=C/Cc1c(C)[nH]c2cc(C)ccc2c1=O [Compound 4, 7-Methyl aurachin D] | – | – | – | – | – | IC50 [1, 4]: 164 µM; IC50 (P. falciparum NF54; [5]): 0.007 µM; IC50 ([2]; Leishmania donovani, 72 h): 9.1 µM; IC50 (Rat Myoblast L6 Cells; [6]): 65.3 µM; IC50 (T. cruzi Tulahuen C4; [3]): 45.7 µM
COc1ccc2[nH]c(C)c(C/C=C(\C)CC/C=C(\C)CCC=C(C)C)c(=O)c2c1 [Compound 5, 6-Methoxy aurachin D] | 40.3 | 0.866 | 7.3 | 118 | 19.3 | –
COc1ccc2c(=O)c(C/C=C(\C)CC/C=C(\C)CCC=C(C)C)c(C)[nH]c2c1 [Compound 6, 7-Methoxy aurachin D] | 44.8 | 0.089 | 17.1 | 80.8 | 21.9 | –
CC(C)=CCC/C(C)=C/CC/C(C)=C/Cc1c(C)[nH]c2ccc(F)cc2c1=O [Compound 7, 6-Fluoro aurachin D] | 37.2 | 0.061 | 0.617 | 126 | 1.8 | –
CC(C)=CCC/C(C)=C/CC/C(C)=C/Cc1c(C)[nH]c2ccc(Cl)cc2c1=O [Compound 8, 6-Chloro aurachin D] | 37.4 | 0.021 | 6.2 | 118 | 11.2 | –
CC(C)=CCC/C(C)=C/CC/C(C)=C/Cc1c(C)[nH]c2cc(Cl)ccc2c1=O [Compound 9, 7-Chloro aurachin D] | 105 | 0.07 | 9.2 | 54.7 | 41.8 | –
CC(C)=CCC/C(C)=C/CC/C(C)=C/Cc1c(C)[nH]c2ccc(Br)cc2c1=O [Compound 10, 6-Bromo aurachin D] | 40.2 | 0.119 | 13.9 | 108 | 22.6 | –
Nc1nc(N)nc(Nc2ccc([As]3SCC(CO)S3)cc2)n1 (stereo not shown) [Melarsoprol, reference compound] | – | – | – | – | – | IC50 ([1]; Trypanosoma brucei, 72 h): 0.013 µM
CCCCCCCCCCCCCCCCOP(=O)([O-])OCC[N+](C)(C)C [Miltefosine, reference compound] | – | – | – | – | – | IC50 ([2]; Leishmania donovani, 72 h): 0.732 µM
COc1cc([C@@H]2c3cc4c(cc3[C@H](O)[C@H]3COC(=O)[C@H]23)OCO4)cc(OC)c1OC [Podophyllotoxin, reference compound] | – | – | – | – | – | IC50 (Rat Myoblast L6 Cells; Rattus norvegicus, L6, 72 h, read-out: IC50 Rat Myoblast L6 Cells): 0.022 µM

Reference: article PMC9919615, “Generation of Aurachin Derivatives by Whole-Cell Biotransformation and Evaluation of Their Antiprotozoal Properties” (Molecules, 2023)
